Tests used:
[1] = tested on: patients who presented with psoriatic lesions; test: Topical treatment of psoriasis in outpatients; assay type: in vivo, human; details: applied as a topical, episodic treatment for psoriasis
Experimental: Eight patients who presented with psoriatic lesions were treated with the ointment of Example 1 on an outpatient basis. The ointment of Example 1 was applied to the psoriatic lesions up to four times per day.

[2] = water, alcohol, ether and chloroform; cited from earlier work
[3] = Federal Register, vol. 47, 12553 (Mar. 23, 1982); cited from earlier work

| Compound | effect on psoriatic lesions [1] | miscibility [2] | safety for topical use [3] |
| --- | --- | --- | --- |
| CC(=O)OCC(COC(C)=O)OC(C)=O [Triacetin, 1,2,3-propanetriol triacetate] | improve psoriatic lesions | miscible in water, alcohol, ether and chloroform | safe for topical use |
| CC(=O)OCC(CO)OC(C)=O (centres unmarked) [diacetin, glycerol diacetate] |  | miscible in water, alcohol, ether and chloroform |  |
| CC(=O)OCC(O)CO (centres unmarked) [monacetin, glycerol monoacetate] |  | miscible in water, alcohol, ether and chloroform |  |
